Where two headings read alike, the source gives them in different places.
How the values were obtained:
TRPV1 = TRPV1 (Homo sapiens, UniProt Q8NER1); assay: Scoville Heat Unit (SHU) as a measure of TRPV1 activation; conditions: for Adjusted SHU: SHU of pure agonist times percent agonist in the herb, totals per herb; for SHU of pure Agonist: pure TRPV1 agonist, per mg
Description: SHU as used herein as a measure of TRPV1 activation. SHU mg is calculated as the SHU of a TRPV1 agonist multiplied by the milligrams of the TRPV1 agonist in a compound.

[1] = cited from earlier work; for Peak theophylline plasma levels / levels of theophylline (absorption) / mean residence times of theophylline: rabbits, oral theophylline 20 mg/kg
[2] = concomitant ground capsicum fruit suspension

TRPV1, sequence (Q8NER1 whole entry, species assumed): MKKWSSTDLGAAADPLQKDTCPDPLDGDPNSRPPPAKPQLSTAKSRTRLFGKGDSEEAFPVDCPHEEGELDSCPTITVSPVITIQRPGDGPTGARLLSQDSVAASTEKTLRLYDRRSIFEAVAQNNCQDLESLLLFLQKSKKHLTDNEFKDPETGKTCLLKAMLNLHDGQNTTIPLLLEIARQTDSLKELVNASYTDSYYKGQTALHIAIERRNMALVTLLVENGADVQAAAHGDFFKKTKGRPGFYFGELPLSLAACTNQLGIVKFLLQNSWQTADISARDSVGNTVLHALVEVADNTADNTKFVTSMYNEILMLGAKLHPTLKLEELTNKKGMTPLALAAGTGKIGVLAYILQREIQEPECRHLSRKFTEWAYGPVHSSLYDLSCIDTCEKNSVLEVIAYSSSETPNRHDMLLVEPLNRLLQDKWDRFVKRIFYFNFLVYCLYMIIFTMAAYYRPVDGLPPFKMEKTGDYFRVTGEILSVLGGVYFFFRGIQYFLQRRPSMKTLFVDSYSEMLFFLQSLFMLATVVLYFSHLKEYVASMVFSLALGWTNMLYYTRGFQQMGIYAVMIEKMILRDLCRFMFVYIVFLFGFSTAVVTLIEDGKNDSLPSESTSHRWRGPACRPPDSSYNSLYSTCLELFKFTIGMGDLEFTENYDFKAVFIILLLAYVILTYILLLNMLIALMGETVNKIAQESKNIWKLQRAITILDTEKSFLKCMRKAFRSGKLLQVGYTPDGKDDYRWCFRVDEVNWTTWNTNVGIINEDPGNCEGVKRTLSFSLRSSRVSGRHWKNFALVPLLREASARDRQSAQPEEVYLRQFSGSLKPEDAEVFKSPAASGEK

| Compound | Adjusted SHU (TRPV1) | SHU of pure Agonist (TRPV1) | further results |
| --- | --- | --- | --- |
| CCCCC[C@H](O)CC(=O)CCc1ccc(O)c(OC)c1 [Formulation 6-gingerol, 6-gingerol] | 3,600 SHU | 60,000 SHU | – |
| CCCCC/C=C/C(=O)CCc1ccc(O)c(OC)c1 [Formulation 6-shogaol, 6-shogaol] | 9,600 SHU | 160,000 SHU | – |
| COc1cc(CNC(=O)CCCC/C=C/C(C)C)ccc1O [capsaicin] | 40,000 SHU | 16,000,000 SHU | – |
| Cn1c(=O)c2[nH]cnc2n(C)c1=O [theophylline] | – | – | Peak theophylline plasma levels [1, 2]: 8.78 ± 0.98 mg/L; levels of theophylline (absorption) [1, 2]: 138.32+/−17.27 mg H/liter; mean residence times of theophylline [1, 2]: 20.98+/−5.75 H; Peak theophylline plasma levels ([1]; without capsicum): 6.65 ± 0.76 mg/L; levels of theophylline (absorption) ([1]; without capsicum): 86.06+/−9.78 mg H/liter; mean residence times of theophylline ([1]; without capsicum): 14.94+/−2.97 H; theophylline plasma levels after second administration of capsicum suspension ([1]; second capsicum suspension 11 hours later, every rabbit): new rise |
| C/C=C/C=C/C=C\CC/C=C/C(=O)NCC(C)(C)O [α-hydroxy-sanshool] | 619 SHU | 26,000 SHU | – |
| C/C=C/C=C/C=C\CC/C=C/C(=O)NCC(C)C [α-sanshool] | 368 SHU | 80,000 SHU | – |
| C/C=C/C=C/C=C/CC/C=C/C(=O)NCC(C)(C)O [β-hydroxy-sanshool] | 35 SHU | 13,000 SHU | – |

More lines, main results first:

| Adjusted SHU (TRPV1) | SHU of pure Agonist (TRPV1) | Compound | further results |
| --- | --- | --- | --- |
| 49 SHU | 70,000 SHU | C/C=C/C=C/C=C/CC/C=C/C(=O)NCC(C)C [β-sanshool] | – |
| 209 SHU | 110,000 SHU | C/C=C/C=C/C=C\CC/C=C/C=C/C(=O)NCC(C)C [γ-sanshool] | – |
| 22 SHU | 110,000 SHU | C/C=C/C=C/C=C/CC/C=C/C=C/C(=O)NCC(C)C [δ-sanshool] | – |
